{
  "source": "ChEMBL document CHEMBL1201862",
  "about": "“PubChem BioAssay data set” (2004)",
  "key": {"SUMO-activating enzyme [1]": {"molecular_target": "T1, SUMO-activating enzyme (Homo sapiens, UniProt Q9UBT2)", "T1 sequence (Q9UBE0 whole entry)": "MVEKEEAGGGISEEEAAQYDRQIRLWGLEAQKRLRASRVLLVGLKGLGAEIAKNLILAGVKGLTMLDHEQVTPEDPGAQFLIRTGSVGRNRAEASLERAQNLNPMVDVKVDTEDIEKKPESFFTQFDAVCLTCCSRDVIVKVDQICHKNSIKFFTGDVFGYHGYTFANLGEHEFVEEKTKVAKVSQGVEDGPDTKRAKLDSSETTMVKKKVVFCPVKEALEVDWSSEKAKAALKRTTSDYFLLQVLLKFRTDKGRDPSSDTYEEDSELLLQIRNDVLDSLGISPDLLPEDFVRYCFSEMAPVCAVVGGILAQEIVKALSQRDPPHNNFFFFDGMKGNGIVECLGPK", "T1 sequence (Q9UBT2 whole entry)": "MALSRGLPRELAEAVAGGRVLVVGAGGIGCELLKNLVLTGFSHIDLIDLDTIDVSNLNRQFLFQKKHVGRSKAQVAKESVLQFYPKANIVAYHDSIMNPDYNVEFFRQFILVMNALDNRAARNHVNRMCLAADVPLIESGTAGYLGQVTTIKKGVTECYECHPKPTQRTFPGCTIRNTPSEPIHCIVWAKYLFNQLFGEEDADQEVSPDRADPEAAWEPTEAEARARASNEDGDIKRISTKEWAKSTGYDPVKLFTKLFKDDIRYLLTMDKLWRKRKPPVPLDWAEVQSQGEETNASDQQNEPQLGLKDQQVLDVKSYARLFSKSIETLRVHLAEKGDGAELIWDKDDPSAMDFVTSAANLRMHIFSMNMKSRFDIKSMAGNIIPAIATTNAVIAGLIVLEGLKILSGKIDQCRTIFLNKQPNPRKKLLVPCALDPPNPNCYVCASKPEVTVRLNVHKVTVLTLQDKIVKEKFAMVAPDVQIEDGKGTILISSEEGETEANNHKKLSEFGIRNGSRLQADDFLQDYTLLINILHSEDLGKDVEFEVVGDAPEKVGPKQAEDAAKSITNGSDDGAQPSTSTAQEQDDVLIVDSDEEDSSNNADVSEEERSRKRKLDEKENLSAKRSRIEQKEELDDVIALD", "test": "SUMOylation inhibitor hit validation, confirmation, SUMOylation inhibitor project, biochemical, AlphaScreen (AID 2018)", "type": "functional"}, "[2]": {"test": "AlphaScreen signal interference compounds, dose response, artefact control for ARNT-TACC3 interaction inhibitor project, biochemical, luminescence, cherry-pick (AID 651705);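 note: AlphaScreen bead proximity signal that flags compounds interfering with the detection technology; potency reflects signal decrease which marks the compound as an assay artifact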", "type": "functional"}, "SUMO-activating enzyme [3]": {"molecular_target": "T1, SUMO-activating enzyme", "test": "inhibitors of in vitro SUMOylation cascade, primary screen, biochemical, HTRF, uHTS (AID 2006)", "type": "protein-complex assay"}, "[4]": {"test": "ARNT/TACC3 interaction disruptors, potency, confirmation, biochemical, AlphaScreen, cherry-picked samples (AID 651703);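 note: His-tagged ARNT PAS-B domain paired with GST-TACC3 E629A dimer coactivator fragment; potency of inhibitors that break up the complex and lower AlphaScreen signal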", "type": "functional, Homo sapiens"}, "HEK293 [5]": {"test_system": "HEK293", "test": "cells", "type": "functional, cell-based", "conditions": "Homo sapiens"}, "HEK293 [6]": {"test_system": "HEK293", "test": "cells", "type": "functional, cell-based", "conditions": "Homo sapiens", "remark": "listed apart in the source"}, "Mu-type opioid receptor": {"molecular_target": "Mu-type opioid receptor (Homo sapiens, UniProt P35372)", "sequence (P35372 whole entry)": "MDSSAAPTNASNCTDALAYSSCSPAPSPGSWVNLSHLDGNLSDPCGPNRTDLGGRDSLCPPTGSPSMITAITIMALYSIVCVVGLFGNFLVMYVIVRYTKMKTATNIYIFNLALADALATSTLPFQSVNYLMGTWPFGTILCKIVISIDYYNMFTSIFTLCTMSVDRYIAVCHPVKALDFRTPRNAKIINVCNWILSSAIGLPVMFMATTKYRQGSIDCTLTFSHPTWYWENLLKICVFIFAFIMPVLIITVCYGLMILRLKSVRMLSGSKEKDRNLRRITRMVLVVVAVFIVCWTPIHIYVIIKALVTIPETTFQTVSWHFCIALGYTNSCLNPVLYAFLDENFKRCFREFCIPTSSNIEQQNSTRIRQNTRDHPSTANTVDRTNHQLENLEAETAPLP", "test": "Counterscreen for agonists of heterodimerization of the mu 1 (OPRM1) and delta 1 (OPRD1) opioid receptors: Luminescence-based cell-based high throughput dose response assay to identify agonists of OPRM1 homodimerization.", "type": "functional"}, "Streptococcus": {"test_system": "Streptococcus", "test": "Group A Streptococcus viability loss, dose response, counter-screen for streptokinase expression inhibitor project, luminescence, BacTiterGlo (AID 1915);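 note: potency for reduction of bacterial viability or growth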", "type": "functional, organism-based"}, "Streptokinase A": {"molecular_target": "T2, Streptokinase A (Streptococcus pyogenes serotype M1, UniProt P10520)", "T2 sequence (P10520 whole entry)": "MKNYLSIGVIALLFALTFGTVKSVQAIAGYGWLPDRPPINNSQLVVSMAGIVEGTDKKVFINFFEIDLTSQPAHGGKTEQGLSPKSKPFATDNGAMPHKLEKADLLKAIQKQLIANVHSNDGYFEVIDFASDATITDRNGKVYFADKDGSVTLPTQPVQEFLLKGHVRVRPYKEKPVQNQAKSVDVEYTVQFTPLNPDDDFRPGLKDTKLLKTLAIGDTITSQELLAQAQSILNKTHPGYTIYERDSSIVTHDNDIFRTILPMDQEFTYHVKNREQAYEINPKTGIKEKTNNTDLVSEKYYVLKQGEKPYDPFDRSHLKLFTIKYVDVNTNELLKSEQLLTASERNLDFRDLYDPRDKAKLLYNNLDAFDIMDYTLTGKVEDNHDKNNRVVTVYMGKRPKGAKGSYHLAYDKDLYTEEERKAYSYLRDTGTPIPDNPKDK", "test": "S. pyogenes streptokinase expression inhibitors, potency, dose response, plasminogen activation absorbance, OD405 (AID 1914);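 note: secreted streptokinase activity via plasminogen activation per viability signal from cell pellet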", "type": "functional, Streptococcus pyogenes M1 GAS"}, "[7]": {"test_system": "Streptococcus sp. 'group A'", "test": "growth inhibition of control SK(-) GAS strain, dose response, counter-screen for streptokinase expression inhibitor project, luminescence, kanamycin, BacTiterGlo, confirmation (AID 1900)", "type": "functional, organism-based"}, "H4": {"test_system": "H4", "test": "inhibitors of control reporter signal in H4 cells – cell-based, plate reader, dry powder samples, counter-screen for prion reporter project, dose response (AID 540255)", "type": "functional", "conditions": "Homo sapiens"}, "[8]": {"molecular_target": "5-hydroxytryptamine receptor 5A (Homo sapiens, UniProt P47898)", "sequence (P47898 whole entry)": "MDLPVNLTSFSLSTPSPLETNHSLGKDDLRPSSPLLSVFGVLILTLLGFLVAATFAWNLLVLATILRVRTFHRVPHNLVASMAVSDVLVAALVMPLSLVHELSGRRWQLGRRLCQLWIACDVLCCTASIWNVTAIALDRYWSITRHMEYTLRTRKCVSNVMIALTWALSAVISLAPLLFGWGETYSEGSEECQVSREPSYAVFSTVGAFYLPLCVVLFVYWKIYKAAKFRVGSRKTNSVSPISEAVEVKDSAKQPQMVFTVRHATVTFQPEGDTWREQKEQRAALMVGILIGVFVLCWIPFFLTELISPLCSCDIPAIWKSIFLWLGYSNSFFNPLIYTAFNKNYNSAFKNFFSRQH", "test": "Counterscreen for agonists of OPRM1-OPRD1 heterodimerization: luminescence-based cell-based high throughput dose response assay to identify agonists of 5-hydroxytryptamine (serotonin) 5A receptor (HTR5A). [Related pubchem assays (depositor defined):AID504326, AID504355, AID504692, AID504904, AID504905]", "type": "functional"}, "HEK293 [9]": {"test_system": "HEK293", "test": "cells", "type": "functional, cell-based", "conditions": "Homo sapiens", "remark": "listed apart in the source"}, "[10]": {"molecular_target": "Serine/threonine-protein phosphatase PP1-alpha catalytic subunit (Homo sapiens, UniProt P62136)", "sequence (P62136 whole entry)": "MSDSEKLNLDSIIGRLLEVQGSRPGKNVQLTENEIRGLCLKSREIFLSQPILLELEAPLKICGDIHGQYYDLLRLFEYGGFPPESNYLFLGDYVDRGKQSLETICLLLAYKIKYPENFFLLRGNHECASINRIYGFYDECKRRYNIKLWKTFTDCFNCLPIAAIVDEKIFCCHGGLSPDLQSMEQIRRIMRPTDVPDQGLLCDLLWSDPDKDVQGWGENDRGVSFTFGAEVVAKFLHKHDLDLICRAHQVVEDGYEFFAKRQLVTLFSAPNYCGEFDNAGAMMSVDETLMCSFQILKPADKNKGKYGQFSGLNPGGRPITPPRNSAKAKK", "test": "PP1 phosphatase inhibitors, dose response, biochemical, fluorescence (AID 2394)"}, "[11]": {"molecular_target": "T3, Sentrin-specific protease 7 (Homo sapiens, UniProt Q9BQF6)", "T3 sequence (Q9BQF6 whole entry)": "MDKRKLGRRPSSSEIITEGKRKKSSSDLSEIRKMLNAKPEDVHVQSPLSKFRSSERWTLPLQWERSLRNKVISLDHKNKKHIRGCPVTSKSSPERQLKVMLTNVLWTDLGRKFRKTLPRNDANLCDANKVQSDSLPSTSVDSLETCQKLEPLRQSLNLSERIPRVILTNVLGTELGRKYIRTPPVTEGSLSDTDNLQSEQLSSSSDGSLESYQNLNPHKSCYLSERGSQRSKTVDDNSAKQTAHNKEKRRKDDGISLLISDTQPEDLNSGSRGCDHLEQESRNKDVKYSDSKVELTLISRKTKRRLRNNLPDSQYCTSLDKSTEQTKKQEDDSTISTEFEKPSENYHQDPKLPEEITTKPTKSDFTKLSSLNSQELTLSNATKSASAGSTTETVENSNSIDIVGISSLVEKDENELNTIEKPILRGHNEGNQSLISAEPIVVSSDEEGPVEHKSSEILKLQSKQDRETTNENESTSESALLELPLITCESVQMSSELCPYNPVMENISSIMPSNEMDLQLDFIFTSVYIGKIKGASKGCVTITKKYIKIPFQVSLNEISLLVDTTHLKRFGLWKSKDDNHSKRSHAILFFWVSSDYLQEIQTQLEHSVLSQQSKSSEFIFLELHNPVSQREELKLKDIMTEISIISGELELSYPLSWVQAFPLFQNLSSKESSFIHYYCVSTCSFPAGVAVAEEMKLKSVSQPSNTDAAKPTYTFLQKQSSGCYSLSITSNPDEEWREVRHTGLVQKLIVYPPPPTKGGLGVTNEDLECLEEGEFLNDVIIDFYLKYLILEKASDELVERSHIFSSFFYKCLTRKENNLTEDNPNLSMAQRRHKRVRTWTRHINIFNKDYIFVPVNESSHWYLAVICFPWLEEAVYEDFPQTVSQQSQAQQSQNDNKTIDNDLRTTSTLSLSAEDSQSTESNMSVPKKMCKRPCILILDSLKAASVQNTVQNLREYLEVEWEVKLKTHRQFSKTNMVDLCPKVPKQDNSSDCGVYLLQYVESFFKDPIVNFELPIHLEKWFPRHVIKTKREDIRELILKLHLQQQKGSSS", "test": "SENP7 protease inhibitors, SAR follow-up, biochemical, luminescence (AID 504497)", "type": "functional"}, "Caspase-3": {"molecular_target": "T4, Caspase-3 (Homo sapiens, UniProt P42574)", "T4 sequence (P42574 whole entry)": "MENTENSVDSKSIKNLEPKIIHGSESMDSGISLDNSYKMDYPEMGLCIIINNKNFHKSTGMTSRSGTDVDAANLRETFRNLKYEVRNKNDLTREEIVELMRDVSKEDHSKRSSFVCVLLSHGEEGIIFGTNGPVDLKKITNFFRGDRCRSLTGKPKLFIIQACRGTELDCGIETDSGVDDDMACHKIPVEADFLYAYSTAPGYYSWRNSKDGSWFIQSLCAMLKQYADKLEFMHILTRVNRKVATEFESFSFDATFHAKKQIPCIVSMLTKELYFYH", "type": "functional"}, "[12]": {"molecular_target": "T5, Polyadenylate-binding protein 1 (Homo sapiens, UniProt P11940)", "T5 sequence (P11940 whole entry)": "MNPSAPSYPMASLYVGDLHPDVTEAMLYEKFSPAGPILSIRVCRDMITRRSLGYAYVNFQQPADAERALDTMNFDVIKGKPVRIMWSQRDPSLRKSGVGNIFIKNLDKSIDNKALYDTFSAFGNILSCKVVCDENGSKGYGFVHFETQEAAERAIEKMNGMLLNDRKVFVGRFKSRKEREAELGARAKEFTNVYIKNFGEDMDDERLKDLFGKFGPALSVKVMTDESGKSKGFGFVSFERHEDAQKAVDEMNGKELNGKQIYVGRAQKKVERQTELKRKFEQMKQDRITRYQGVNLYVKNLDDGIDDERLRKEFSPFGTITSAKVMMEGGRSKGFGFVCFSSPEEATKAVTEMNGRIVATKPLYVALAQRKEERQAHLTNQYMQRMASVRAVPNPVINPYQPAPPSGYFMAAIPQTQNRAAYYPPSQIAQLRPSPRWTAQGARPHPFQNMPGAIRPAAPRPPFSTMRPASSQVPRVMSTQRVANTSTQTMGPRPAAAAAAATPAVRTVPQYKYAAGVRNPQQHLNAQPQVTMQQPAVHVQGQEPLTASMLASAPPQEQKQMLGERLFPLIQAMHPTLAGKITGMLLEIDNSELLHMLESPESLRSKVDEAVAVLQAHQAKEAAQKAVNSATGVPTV", "test": "PABP1 MLLE–PAM2 interaction inhibitors, dose response, miRNA deadenylation inhibitor project, biochemical, fluorescence polarization, Cy5-PAM2 peptide, secondary (AID 602260)", "type": "functional", "conditions": "read-out: IC50_Mean"}, "[13]": {"molecular_target": "T5, Polyadenylate-binding protein 1", "test": "PABP1 MLLE–PAM2 binding inhibitor potency, dose response, biochemical, fluorescence polarization, FITC-PAM2 peptide (AID 602259)", "type": "functional", "conditions": "read-out: IC50_Mean"}},
  "note": "Activity calls are given as the source filed them.",
  "data": [
    {"smiles": "COC(=O)c1cccc(-c2ccc(C(c3c(C)n[nH]c3O)c3c(C)n[nH]c3O)o2)c1", "values": [
      {"measurement": "IC50", "setting": "SUMO-activating enzyme [1]", "result": "9.36 µM (active)"},
      {"measurement": "AC50", "setting": "[2]", "result": "107 µM (active)"},
      {"measurement": "IC50", "setting": "SUMO-activating enzyme [3]", "result": "> 100 µM (inactive)"},
      {"measurement": "AC50", "setting": "[4]", "result": "87.9 µM (active)"}
    ]},
    {"smiles": "Cc1cc(/C=C2\\SC(=S)N(C)C2=O)c(C)n1-c1ccc(O)cc1", "values": [
      {"measurement": "IC50", "setting": "HEK293 [5]", "result": "0.345 µM (active)"},
      {"measurement": "IC50", "setting": "HEK293 [6]", "result": "> 20 µM (inactive)"},
      {"measurement": "EC50", "setting": "Mu-type opioid receptor", "result": "> 92.5 µM (inactive)"},
      {"measurement": "EC50", "setting": "Streptococcus", "result": "3.06 µM (active)"},
      {"measurement": "EC50", "setting": "Streptokinase A", "result": "> 150 µM (not active)"},
      {"measurement": "EC50", "setting": "[7]", "result": "3.41 µM (active)"},
      {"measurement": "AC50", "setting": "H4", "result": "0.492 µM (active)"},
      {"measurement": "EC50", "setting": "[8]", "result": "> 92.5 µM (inactive)"},
      {"measurement": "IC50", "setting": "HEK293 [9]", "result": "11.2 µM (active)"}
    ]},
    {"smiles": "Cc1ccc(C(=O)NNc2cc(N3CCCC3)nc(N3CCCC3)n2)cc1", "values": [
      {"measurement": "IC50", "setting": "[10]", "result": "64 µM (not active)"},
      {"measurement": "IC50", "setting": "[11]", "result": "7.68 µM (active)"},
      {"measurement": "IC50", "setting": "Caspase-3", "result": "> 100 µM (inactive)"}
    ]},
    {"smiles": "O=C1/C(=N\\c2cccc(O)c2)C(N2CCCCC2)=C(O)c2ccccc21", "values": [
      {"measurement": "IC50", "setting": "[12]", "result": "> 66 µM (inactive)"},
      {"measurement": "IC50", "setting": "[13]", "result": "> 66 µM (inactive)"}
    ]}
  ]
}
